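Protocol summary: plate cells (96-well), add compound at 5 concentrations, incubate 48 h, interpolate endpoints linearly. Here, GI50 denotes the concentration required for 50% inhibition of growth.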 The source made the active and inactive calls. No stated cut-off is given here; in the data, active = GI50 up to about 1.1 µM and inactive = higher.
Key:
Experiment in all cases: NCI-60 cell line screen, 48 h
K562 = system: K562
HOP-62 = system: HOP-62
HCC 2998 = system: HCC 2998
SF-268 = system: SF-268
M14 = system: M14
BT-549 = system: BT-549
SN12C = system: SN12C
HCT-116 = system: HCT-116
HT-29 = system: HT-29
SNB-19 = system: SNB-19
UACC-62 = system: UACC-62
MOLT-4 = system: MOLT-4
RPMI-8226 = system: RPMI-8226
Malme-3M = system: Malme-3M
CCRF-CEM = system: CCRF-CEM
OVCAR-5 = system: OVCAR-5
RXF 393 = system: RXF 393
CAKI-1 = system: CAKI-1
SK-MEL-2 = system: SK-MEL-2

| Structure (SMILES) | GI50 (K562) | GI50 (HOP-62) | GI50 (HCC 2998) | GI50 (SF-268) | GI50 (M14) | GI50 (BT-549) | GI50 (SN12C) | GI50 (HCT-116) | GI50 (HT-29) | GI50 (SNB-19) | GI50 (UACC-62) | GI50 (MOLT-4) | GI50 (RPMI-8226) | GI50 (Malme-3M) | GI50 (CCRF-CEM) | GI50 (OVCAR-5) | GI50 (RXF 393) | GI50 (CAKI-1) | GI50 (SK-MEL-2) |
| --- | --- | --- | --- | --- | --- | --- | --- | --- | --- | --- | --- | --- | --- | --- | --- | --- | --- | --- | --- |
| Cc1c2c3ccccc3nc-2n(C)c2ccccc12 | 1.3 µM (inactive) | 3.78 µM (inactive) | 2.64 µM (inactive) | 3.83 µM (inactive) | 3.48 µM (inactive) | 3.71 µM (inactive) | 1.64 µM (inactive) | 0.495 µM (active) | 1.34 µM (inactive) | 5.35 µM (inactive) | 1.7 µM (inactive) | 0.339 µM (active) | 2.7 µM (inactive) | 2.08 µM (inactive) | 0.724 µM (active) | 2.61 µM (inactive) | 1.99 µM (inactive) |  |  |
| Oc1cc2c(cc1C(c1ccc3c(c1)OCO3)N1CCN(C(c3ccc4c(c3)OCO4)c3cc4c(cc3O)OCO4)CC1)OCO2 (stereo not given) | 21.4 µM (inactive) | 21.7 µM (inactive) |  | 18 µM (inactive) | 14.4 µM (inactive) | 13.7 µM (inactive) | 16 µM (inactive) | 15.7 µM (inactive) | 5.26 µM (inactive) | 20.4 µM (inactive) | 14.4 µM (inactive) | 7.08 µM (inactive) |  | 15.6 µM (inactive) |  | 18.2 µM (inactive) | 26.2 µM (inactive) | 20.5 µM (inactive) | 19.5 µM (inactive) |
| NC(Cc1ccc(OCc2ccccc2)cn1)C(=O)O (stereo not given) | > 100 µM (inactive) | > 100 µM (inactive) | > 100 µM (inactive) | > 100 µM (inactive) |  | > 100 µM (inactive) | > 100 µM (inactive) | > 100 µM (inactive) | > 100 µM (inactive) | > 100 µM (inactive) |  | > 100 µM (inactive) | > 100 µM (inactive) | > 100 µM (inactive) | > 100 µM (inactive) | > 100 µM (inactive) | > 100 µM (inactive) | > 100 µM (inactive) |  |
| O=C1Oc2ccccc2C(=O)/C1=C/NC(=S)NCc1ccccc1 |  | 57.9 µM (inactive) | 72.4 µM (inactive) |  | 75 µM (inactive) | 5.09 µM (inactive) | 56.5 µM (inactive) | 53.8 µM (inactive) | > 100 µM (inactive) | 43.6 µM (inactive) |  | 54.3 µM (inactive) |  |  |  | > 100 µM (inactive) |  | 21 µM (inactive) | 19.3 µM (inactive) |
| OC1OC(c2ccco2)C(F)(F)C(F)(F)C1(F)F (stereo not given) | > 100 µM (inactive) | > 100 µM (inactive) |  | 71.3 µM (inactive) | > 100 µM (inactive) | > 100 µM (inactive) | > 100 µM (inactive) | > 100 µM (inactive) | 23.3 µM (inactive) | > 100 µM (inactive) | > 100 µM (inactive) |  | 39.8 µM (inactive) | 51.8 µM (inactive) | 21.9 µM (inactive) | > 100 µM (inactive) | > 100 µM (inactive) |  | > 100 µM (inactive) |
| N#CCCN(CCC#N)c1ccc(/C=C2\N=C(c3ccccc3)N(NC(N)=S)C2=O)cc1 | > 100 µM (inactive) | > 100 µM (inactive) |  | > 100 µM (inactive) | > 100 µM (inactive) | > 100 µM (inactive) | > 100 µM (inactive) | > 100 µM (inactive) | > 100 µM (inactive) | > 100 µM (inactive) | > 100 µM (inactive) | > 100 µM (inactive) | > 100 µM (inactive) | > 100 µM (inactive) | > 100 µM (inactive) | > 100 µM (inactive) | > 100 µM (inactive) | > 100 µM (inactive) | > 100 µM (inactive) |

Reference: ChEMBL document CHEMBL1201862, “PubChem BioAssay data set” (2004)
